# According to PubChem BioAssay (NCI):
# Values joined by “and” are separate entries in the source; they are usually repeats but may differ in a detail not shown here. Equal entries are not always repeated.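 Cells were grown in 96-well plates and exposed to each compound for 48 hours at five concentrations; endpoints were interpolated linearly between bracketing concentrations, or set to the highest concentration if not reached. Abbreviation: GI50, concentration required for 50% inhibition of growth. TGI is the concentration that stops growth completely.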
# Legend:
# Test in all cases: NCI tumour cell line growth inhibition, 48 h
# 786-0 renal = tested on: 786-0 renal
# BT-549 breast = tested on: BT-549 breast
# CCRF-CEM leukemia = tested on: CCRF-CEM leukemia
# HOP-92 NSCLC = tested on: HOP-92 NSCLC
# MDA-MB-435 = tested on: MDA-MB-435
# NCI-H23 lung = tested on: NCI-H23 lung
# RXF 393 renal = tested on: RXF 393 renal
# SF-539 CNS = tested on: SF-539 CNS
# SW-620 colon = tested on: SW-620 colon
# TK-10 renal = tested on: TK-10 renal
Compound,GI50 (786-0 renal),TGI (786-0 renal),GI50 (BT-549 breast),TGI (BT-549 breast),GI50 (CCRF-CEM leukemia),TGI (CCRF-CEM leukemia),GI50 (HOP-92 NSCLC),TGI (HOP-92 NSCLC),GI50 (MDA-MB-435),TGI (MDA-MB-435),GI50 (NCI-H23 lung),TGI (NCI-H23 lung),GI50 (RXF 393 renal),TGI (RXF 393 renal),GI50 (SF-539 CNS),TGI (SF-539 CNS),GI50 (SW-620 colon),TGI (SW-620 colon),GI50 (TK-10 renal),TGI (TK-10 renal)
COc1cc2c3c(n(C)c(=O)c2cc1OC)-c1ccc(C#N)cc1C3=O,> 100000 nM,> 100 µM,> 100000 nM,> 100 µM,> 100000 nM,> 100 µM,> 100000 nM,> 100 µM,> 100000 nM,> 100 µM,> 100 µM,> 100 µM,> 100000 nM,> 100 µM,> 100000 nM,> 100 µM,> 100000 nM,> 100 µM,> 100000 nM,> 100 µM
COC(=O)CSSCc1ccc([N+](=O)[O-])cc1,–,65.3 µM,–,41.7 µM,–,88 µM,–,> 100 µM,–,31.3 µM,–,> 100 µM,–,36.2 µM,–,32.7 µM,–,36.8 µM,–,55.7 µM
CN(Cc1cnc2nc(N)nc(N)c2n1)c1ccc(C(=O)NC(CCC(=O)O)C(=O)O)cc1Br (configuration not stated),< 10 nM,–,< 10 nM,2.5 µM,< 10 nM,> 44.5 µM,1470 nM,23.1 µM,< 10 nM,5.15 µM,< 0.01 µM,2.12 µM,459 nM,5.01 µM,< 10 nM,8.44 µM,< 10 nM,> 83.9 µM,< 10 nM,> 100 µM
COc1cc(-c2nn(-c3cccc(NC(=O)c4ccc(Cl)c(C(F)(F)F)c4)c3)cc2-c2ccncc2)ccc1Cl,8200 nM,> 32.5 µM,4350 nM,> 32.5 µM,1770 nM,> 32.5 µM,425 nM,2.5 µM,658 nM,1.79 µM,3.14 µM,> 32.5 µM,2010 nM,> 24.6 µM,2630 nM,15 µM,2870 nM,> 32.5 µM,12900 nM,> 32.5 µM
CC1=C(Nc2ccc(N3CCN(C)CC3)cc2)C(=O)c2cncnc2C1=O,20400 nM,52.5 µM,17100 nM,32.5 µM,2600 nM,> 100 µM,2120 nM,4.37 µM,1870 nM,3.4 µM,6.26 µM,32.7 µM,5710 nM,19.4 µM,13500 nM,26.9 µM,2540 nM,8.04 µM,28500 nM,58.1 µM
COc1cc2cc(Oc3ccc(NC(=O)Nc4ccc(Cl)c(Cl)c4)cc3)c(C)nc2cc1OC,3640 nM,17.7 µM,2400 nM,11.7 µM,2380 nM,14 µM,2040 nM,4.88 µM,3090 nM,16.8 µM,3.36 µM,15.9 µM,4280 nM,16.7 µM,5180 nM,22.3 µM,4240 nM,15.6 µM,3460 nM,9.18 µM
Cn1cc(C2=C(c3cn(CCCCCSC(=N)N)c4ccccc34)C(=O)NC2=O)c2ccccc21,3160 nM,7 µM,3650 nM,7.12 µM,1930 nM,5.87 µM,3270 nM,7.21 µM,1060 nM,4.07 µM,3.5 µM,7.56 µM,2550 nM,5.68 µM,3510 nM,6.77 µM,2960 nM,6.54 µM,2660 nM,5.71 µM
C#CCOc1ccc2ncnc(Nc3ccc(NC(=O)C=C)cc3)c2c1,11900 nM,38.2 µM,39300 nM,> 100 µM,4260 nM,40.8 µM,7840 nM,52.7 µM,36200 nM,> 100 µM,> 100 µM,> 100 µM,15200 nM,58.8 µM,9760 nM,39.6 µM,6300 nM,33.1 µM,2620 nM,9.03 µM
CSC(=Nc1ccccc1)/N=C(\SCc1ccccc1)N(C)C,–,1.78 µM,–,2.86 µM,–,> 100 µM,–,2.73 µM,–,2.48 µM,–,3.32 µM,–,2.3 µM,–,2.57 µM,–,1.83 µM,–,2.63 µM
COc1ccc(N(C)c2nc(N)nc3sc4c(c23)CCCC4)cc1,< 10 nM,13.2 µM,12.3 nM,10.5 µM,< 10 nM,55.5 µM,< 18.7 nM,6.81 µM,< 10 nM,–,< 0.01 µM,20.8 µM,< 10 nM,20.7 µM,< 10 nM,–,< 10 nM,16.4 µM,< 27.8 nM,22 µM
Cc1cc(Cl)nc(N(CCCNc2ccnc3cc(Cl)ccc23)Cc2ccco2)n1,1910 nM,4.61 µM,2160 nM,6.47 µM,2320 nM,8.93 µM,779 nM,4.19 µM,2310 nM,7.17 µM,1.98 µM,7.68 µM,1410 nM,4.55 µM,2330 nM,6.38 µM,2500 nM,10.3 µM,2700 nM,11.1 µM
COc1cc2nc3cc([N+](=O)[O-])ccc3c(NCCNCC(C)(C)O)c2cc1OC,1510 nM,4.04 µM,1840 nM,4.14 µM,573 nM,5.13 µM,503 nM,2.43 µM,600 nM,1.93 µM,0.629 µM,3.43 µM,1070 nM,2.87 µM,566 nM,2.12 µM,540 nM,4.07 µM,1700 nM,5.43 µM
COc1ccc(/C(C#N)=C2C=C/C(=N/O)c3ccccc3\2)cc1,457 nM,15 µM,333 nM,8.18 µM,254 nM,12.6 µM,390 nM,6.96 µM,38.8 nM,0.179 µM,0.403 µM,14.4 µM,437 nM,20.6 µM,200 nM,0.67 µM,262 nM,14.4 µM,11300 nM,28 µM
O=C(Nc1nc2ccccc2s1)Nc1ccc([N+](=O)[O-])cc1Cl,1920 nM,3.7 µM,2040 nM,7.68 µM,2520 nM,> 49.4 µM,3810 nM,11.7 µM,3560 nM,14.2 µM,3.49 µM,14.6 µM,1590 nM,3.28 µM,1690 nM,3.11 µM,2860 nM,7.82 µM,3180 nM,7.87 µM
CCc1nc(N)nc(N)c1-c1ccc(N2CCNCC2)cc1,–,> 100 µM,–,> 100 µM,–,> 86.7 µM,–,> 100 µM,–,> 100 µM,–,> 97.3 µM,–,> 100 µM,–,> 100 µM,–,> 100 µM,–,> 100 µM
CSc1ccc2c(c1)C(N1CCN(C)CC1)Cc1ccccc1S2 (configuration not stated),1770 nM,19.8 µM and 3.36 µM,2840 nM,17.6 µM and 9.3 µM,1700 nM,0.845 µM and 3.84 µM,393 nM,7.77 µM and 2.62 µM,1780 nM,6.47 µM and 3.46 µM,3.22 µM,28.8 µM and 11.8 µM,1540 nM,14 µM and 3.39 µM,1870 nM,18.9 µM and 3.61 µM,1690 nM,20.6 µM and 3.42 µM,1840 nM,12.8 µM and 3.41 µM
Cn1ncc(Cl)c1-c1cc(C(=O)N[C@H](CN)Cc2ccc(F)c(F)c2)oc1Cl,37.1 nM and 29.5 nM,3.79 µM and 2.1 µM,511 nM and 412 nM,3.71 µM and 3.02 µM,197 nM and 196 nM,11.8 µM and > 10 µM,139 nM and 191 nM,2.42 µM and 1.42 µM,1230 nM and 889 nM,10.4 µM and > 6.54 µM,5.17 µM and 2.44 µM,19.7 µM and > 10 µM,36.1 nM and 33.8 nM,0.534 µM and 0.705 µM,161 nM and 121 nM,3.22 µM and 2.14 µM,7820 nM and 4100 nM,21.8 µM and > 10 µM,961 nM and 203 nM,8.74 µM and 3.92 µM
c1ccc2c3c([nH]c2c1)C(c1ccc(C2NCCc4c2[nH]c2ccccc42)cc1)NCC3 (configuration not stated),1750 nM,3.38 µM,11100 nM,24.4 µM,452 nM,2.03 µM,731 nM,2.89 µM,359 nM,1.27 µM,1.65 µM,3.36 µM,1310 nM,2.67 µM,1620 nM,3.04 µM,185 nM,0.344 µM,1980 nM,4.09 µM
